Assay results as given in US8383817B2, “Benztropine compounds and uses thereof” (The United States of America, as represented by the …, priority 2005, dated 2013).

Experiments:
[1] = Cocaine Discrimination Assay; type: in vivo, rat; details: rats trained to discriminate IP 10 mg/kg cocaine from saline; 80% or higher = full substitution; FIG. 1
[2] = Model For Determining Increase in Attention; type: in vivo, rat; details: rats, five-hole chamber, 40 min session, FIG. 4B
Method: Model For Determining Increase in Attention. Rats were trained during daily sessions in a chamber which contained five holes along one wall. When a light came on behind one of the holes, the rat had 5 sec to respond by putting its nose in the hole. If it did this, a food pellet was dispensed. Lights came on for one second randomly in time. Each tenth “correct” response produced a food pellet. The rat had to continuously monitor (attend to) the lights to perform well. The results were measured and illustrated in FIG. 4A. […] The short diagonal marks on the line indicate the occasions on which food pellets were delivered.
Rats were administered a dose of a compound of Formula III, in which R^1 is methyl and R^2 and R^3 are each fluoro. The same task was applied and the number of correct and incorrect responses was measured. The results are depicted in FIG. 4B.

[3] = Model For Reducing Effect of Nicotine (nicotine discrimination); type: in vivo, rat; details: rats; dose 1.0 mg/kg; nicotine only control 50%
Text: Model For Reducing Effect of Nicotine. Food-deprived rats were trained to press one lever for a food pellet after nicotine administration and a second lever after vehicle administration. Pellets of food were delivered intermittently, so that every twentieth response produced food. Using this procedure, the only cue for the rat regarding which lever occasionally pays off with a food pellet, is the subjective effect of the nicotine. When the rats were accurately and reliably identifying the nicotine injections (approximately all of its responses on the lever that occasionally pays off after nicotine or saline), testing began. The rats were pretreated with a compound of Formula III before nicotine injection, and the experiment progressed as described above, except responses on either lever intermittently produced food. A 50% effective nicotine dose was reduced to low levels of effectiveness upon administration of a compound of Formula III.

DAT = target: T1, DAT (Rattus norvegicus, UniProt P23977); experiment: biochemical; type: binding
T1 construct: their brains removed to an ice-cooled dish for dissection of the caudate putamen; from tissue; host or cells: rat caudate putamen homogenate

SERT = target: T2, SERT (Rattus norvegicus, UniProt P31652); experiment: [3H]Citalopram Binding Assay, rat midbrain membranes
T2 construct: Membranes from frozen rat midbrain were homogenized; from tissue; host or cells: rat midbrain membranes

NET = target: T3, NET (Rattus norvegicus, UniProt Q9WTR4); type: binding; details: read-out: NET Ki; Table 2
T3 construct: rows headed: NET Ki; NET Ki

muscarinic M1 receptor = target: T4, muscarinic M1 receptor (Rattus norvegicus, UniProt P08482); experiment: [3H]Pirenzepine Binding Assay, rat brain membranes
T4 construct: Membranes from frozen rat brains excluding cerebellum were thawed; from tissue; host or cells: rat brain (excluding cerebellum) membranes
T4 sequence (P08482 1-460): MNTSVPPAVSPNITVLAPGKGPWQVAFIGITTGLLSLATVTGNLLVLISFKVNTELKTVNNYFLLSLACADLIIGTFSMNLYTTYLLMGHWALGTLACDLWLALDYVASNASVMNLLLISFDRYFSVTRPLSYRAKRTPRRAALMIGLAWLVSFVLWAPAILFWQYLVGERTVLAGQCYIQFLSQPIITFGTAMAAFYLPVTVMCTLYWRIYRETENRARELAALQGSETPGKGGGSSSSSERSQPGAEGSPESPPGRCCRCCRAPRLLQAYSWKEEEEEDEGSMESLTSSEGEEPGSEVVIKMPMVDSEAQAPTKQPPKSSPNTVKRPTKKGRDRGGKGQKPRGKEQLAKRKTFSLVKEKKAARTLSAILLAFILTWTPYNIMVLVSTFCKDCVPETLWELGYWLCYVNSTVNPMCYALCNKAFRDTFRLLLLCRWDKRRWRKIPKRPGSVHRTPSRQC

DA uptake = target: T5, DA uptake (Rattus norvegicus, UniProt P23977); experiment: Dopamine Uptake Assay, [3H]dopamine in synaptosomal tissue preparation; type: biochemical
T5 construct: The synaptosomal tissue preparation was incubated in buffer in glass test tubes at 37° C; from tissue
T5 sequence (P23977 whole entry): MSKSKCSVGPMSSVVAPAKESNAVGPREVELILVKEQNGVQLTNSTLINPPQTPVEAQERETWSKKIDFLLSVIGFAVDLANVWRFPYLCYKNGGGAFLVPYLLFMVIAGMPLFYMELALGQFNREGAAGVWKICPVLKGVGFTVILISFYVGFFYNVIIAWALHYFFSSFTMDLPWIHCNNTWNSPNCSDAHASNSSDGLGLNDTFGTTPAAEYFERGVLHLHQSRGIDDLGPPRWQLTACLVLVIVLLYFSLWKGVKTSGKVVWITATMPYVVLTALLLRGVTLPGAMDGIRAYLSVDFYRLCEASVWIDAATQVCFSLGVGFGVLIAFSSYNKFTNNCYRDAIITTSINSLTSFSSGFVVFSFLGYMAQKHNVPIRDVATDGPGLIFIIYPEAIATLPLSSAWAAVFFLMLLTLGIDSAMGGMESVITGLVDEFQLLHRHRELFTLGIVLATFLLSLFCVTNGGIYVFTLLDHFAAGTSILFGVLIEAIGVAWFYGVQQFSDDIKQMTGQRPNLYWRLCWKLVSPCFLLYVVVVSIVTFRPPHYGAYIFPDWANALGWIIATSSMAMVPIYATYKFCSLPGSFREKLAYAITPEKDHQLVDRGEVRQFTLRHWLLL

T2 sequence (P31652 whole entry): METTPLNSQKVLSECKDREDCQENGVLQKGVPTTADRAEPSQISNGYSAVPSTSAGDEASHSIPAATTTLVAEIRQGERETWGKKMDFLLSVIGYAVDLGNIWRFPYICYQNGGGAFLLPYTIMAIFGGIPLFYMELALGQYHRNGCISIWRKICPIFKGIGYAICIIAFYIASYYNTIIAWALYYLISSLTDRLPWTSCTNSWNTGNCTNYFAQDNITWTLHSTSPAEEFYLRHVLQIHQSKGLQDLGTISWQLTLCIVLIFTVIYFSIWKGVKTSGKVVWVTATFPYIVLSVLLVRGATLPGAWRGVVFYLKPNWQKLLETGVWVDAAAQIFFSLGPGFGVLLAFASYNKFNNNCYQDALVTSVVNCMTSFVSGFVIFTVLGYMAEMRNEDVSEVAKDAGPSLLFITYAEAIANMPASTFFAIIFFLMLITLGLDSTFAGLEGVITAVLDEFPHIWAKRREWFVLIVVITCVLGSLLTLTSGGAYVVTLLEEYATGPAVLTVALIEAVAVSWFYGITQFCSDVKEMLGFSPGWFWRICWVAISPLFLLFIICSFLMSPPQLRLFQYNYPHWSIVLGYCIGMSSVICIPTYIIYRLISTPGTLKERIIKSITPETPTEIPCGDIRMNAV
T1 sequence (P23977 whole entry): as the sequence (P23977 whole entry) above

SMILES	Substitution for cocaine (cocaine-appropriate responding) [1]	Number of correct responses (attention to brief light stimuli) [2]	Effect (of a 50% effective nicotine dose after pretreatment) [3] [%]	Ki (DAT) [nM]	Ki (SERT) [nM]	Ki (NET) [nM]	Ki (muscarinic M1 receptor) [nM]	IC50 (DA uptake) [nM]
CN1[C@@H]2CC[C@@H]1CC(OC(c1ccc(F)cc1)c1ccc(F)cc1)C2 (stereo partly shown) [AHN 1-055]	did not fully substitute for cocaine	far greater than before treatment	7.65	–	–	–	–	–
COC(=O)[C@@H]1[C@@H](OC(c2ccc(Cl)cc2)c2ccc(Cl)cc2)C[C@H]2CC[C@@H]1N2C [Compound S-14]	–	–	–	12.6 ± 0.4	528 ± 39	2150 ± 325	382 ± 37	2.46 ± 0.2
CCOC(=O)[C@@H]1[C@@H](OC(c2ccc(Cl)cc2)c2ccc(Cl)cc2)C[C@H]2CC[C@@H]1N2C [Compound S-15, S-(+)-2β-Carboethoxy-3α-[bis(4-chlorophenyl)methoxy]tropane]	–	–	–	14.6 ± 0.39	1560 ± 91	3350 ± 154	3060 ± 150	1.52 ± 0.2
